Reference: patent US20260125360A1, “HERBICIDAL IMIDAZOLE COMPOUNDS” (SYNGENTA CROP PROTECTION AG, priority 2022, published 2026)

What was measured:
Format in all cases: in vivo
Settings in all cases: 250 g/ha, evaluated after 13 days
[1] = tested on: Echinochloa crus-galli (ECHCG); assay: Pre-emergence herbicide glasshouse test
Method in brief: (§1)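 Spray: acetone/water 50:50 + 0.5% Tween 20, 250 g/ha unless stated; 1 d (pre) or 8 d (post) after sowing. Glasshouse 24/16° C, 14 h light, 65% RH, watered twice daily. Read-out at 13 d: % damage binned 1–5 (5=81-100%, 1=0-20%).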

[2] = tested on: Ipomoea hederacea (IPOHE); assay: Pre-emergence herbicide glasshouse test
Method in brief: as §1

[3] = tested on: Amaranthus palmeri (AMAPA); assay: Pre-emergence herbicide glasshouse test
Method in brief: as §1

[4] = tested on: Amaranthus retoflexus (AMARE); assay: Pre-emergence herbicide glasshouse test
Method in brief: as §1

[5] = tested on: Echinochloa crus-galli (ECHCG); assay: Post-emergence herbicide glasshouse test
Method in brief: as §1

[6] = tested on: Ipomoea hederacea (IPOHE); assay: Post-emergence herbicide glasshouse test
Method in brief: as §1

[7] = tested on: Amaranthus palmeri (AMAPA); assay: Post-emergence herbicide glasshouse test
Method in brief: as §1

[8] = tested on: Amaranthus retoflexus (AMARE); assay: Post-emergence herbicide glasshouse test
Method in brief: as §1

Structure (SMILES): Cc1nc(Cn2cc(C(F)(F)F)nc2-c2cnc(F)c(Cl)c2)no1 [Compound 1.160]
- percentage damage caused to the plant, ECHCG (five-point scale) [1]: 5 (5=81-100%)
- percentage damage caused to the plant, IPOHE (five-point scale) [2]: 5 (5=81-100%)
- percentage damage caused to the plant, AMAPA (five-point scale) [3]: 5 (5=81-100%)
- percentage damage caused to the plant, AMARE (five-point scale) [4]: 5 (5=81-100%)
- percentage damage caused to the plant, ECHCG (five-point scale) [5]: 5 (5=81-100%)
- percentage damage caused to the plant, IPOHE (five-point scale) [6]: 4 (4=61-80%)
- percentage damage caused to the plant, AMAPA (five-point scale) [7]: 5 (5=81-100%)
- percentage damage caused to the plant, AMARE (five-point scale) [8]: 5 (5=81-100%)

Structure (SMILES): Cc1coc(Cn2cc(C(F)(F)F)nc2-c2ccc(Cl)nc2)n1 [Compound 1.096]
- percentage damage caused to the plant, ECHCG (five-point scale) [1]: 5 (5=81-100%)
- percentage damage caused to the plant, IPOHE (five-point scale) [2]: 5 (5=81-100%)
- percentage damage caused to the plant, AMAPA (five-point scale) [3]: 5 (5=81-100%)
- percentage damage caused to the plant, AMARE (five-point scale) [4]: 5 (5=81-100%)
- percentage damage caused to the plant, ECHCG (five-point scale) [5]: 4 (4=61-80%)
- percentage damage caused to the plant, IPOHE (five-point scale) [6]: 3 (3=41-60%)
- percentage damage caused to the plant, AMAPA (five-point scale) [7]: 5 (5=81-100%)
- percentage damage caused to the plant, AMARE (five-point scale) [8]: 5 (5=81-100%)

Structure (SMILES): FC(F)(F)c1cn(Cc2ccns2)c(-c2ccc(Cl)nc2)n1 [Compound 1.113]
- percentage damage caused to the plant, ECHCG (five-point scale) [1]: 1 (1=0-20%)
- percentage damage caused to the plant, IPOHE (five-point scale) [2]: 1 (1=0-20%)
- percentage damage caused to the plant, AMAPA (five-point scale) [3]: 1 (1=0-20%)
- percentage damage caused to the plant, AMARE (five-point scale) [4]: 1 (1=0-20%)
- percentage damage caused to the plant, ECHCG (five-point scale) [5]: 1 (1=0-20%)
- percentage damage caused to the plant, IPOHE (five-point scale) [6]: 1 (1=0-20%)
- percentage damage caused to the plant, AMAPA (five-point scale) [7]: 1 (1=0-20%)
- percentage damage caused to the plant, AMARE (five-point scale) [8]: 1 (1=0-20%)

Structure (SMILES): Cn1nnc(Cn2cc(C(F)(F)F)nc2-c2ccc(Cl)nc2)c1C(F)F [Compound 1.070]
- percentage damage caused to the plant, ECHCG (five-point scale) [1]: 1 (1=0-20%)
- percentage damage caused to the plant, IPOHE (five-point scale) [2]: 4 (4=61-80%)
- percentage damage caused to the plant, AMAPA (five-point scale) [3]: 5 (5=81-100%)
- percentage damage caused to the plant, AMARE (five-point scale) [4]: 5 (5=81-100%)
- percentage damage caused to the plant, ECHCG (five-point scale) [5]: 1 (1=0-20%)
- percentage damage caused to the plant, IPOHE (five-point scale) [6]: 4 (4=61-80%)
- percentage damage caused to the plant, AMAPA (five-point scale) [7]: 4 (4=61-80%)
- percentage damage caused to the plant, AMARE (five-point scale) [8]: 4 (4=61-80%)

Structure (SMILES): Cc1cnc(Cn2cc(C(F)(F)F)nc2-c2ccc(Cl)nc2)o1 [Compound 1.094]
- percentage damage caused to the plant, ECHCG (five-point scale) [1]: 5 (5=81-100%)
- percentage damage caused to the plant, IPOHE (five-point scale) [2]: 4 (4=61-80%)
- percentage damage caused to the plant, AMAPA (five-point scale) [3]: 5 (5=81-100%)
- percentage damage caused to the plant, AMARE (five-point scale) [4]: 5 (5=81-100%)
- percentage damage caused to the plant, ECHCG (five-point scale) [5]: 4 (4=61-80%)
- percentage damage caused to the plant, IPOHE (five-point scale) [6]: 3 (3=41-60%)
- percentage damage caused to the plant, AMAPA (five-point scale) [7]: 5 (5=81-100%)
- percentage damage caused to the plant, AMARE (five-point scale) [8]: 5 (5=81-100%)

Structure (SMILES): CC(C)c1nnc(Cn2cc(C(F)(F)F)nc2-c2ccc(Cl)nc2)o1 [Compound 1.131]
- percentage damage caused to the plant, ECHCG (five-point scale) [1]: 1 (1=0-20%)
- percentage damage caused to the plant, IPOHE (five-point scale) [2]: 1 (1=0-20%)
- percentage damage caused to the plant, AMAPA (five-point scale) [3]: 1 (1=0-20%)
- percentage damage caused to the plant, AMARE (five-point scale) [4]: 5 (5=81-100%)
- percentage damage caused to the plant, ECHCG (five-point scale) [5]: 1 (1=0-20%)
- percentage damage caused to the plant, IPOHE (five-point scale) [6]: 1 (1=0-20%)
- percentage damage caused to the plant, AMAPA (five-point scale) [7]: 1 (1=0-20%)
- percentage damage caused to the plant, AMARE (five-point scale) [8]: 1 (1=0-20%)

Structure (SMILES): Cn1ccc(Cn2cc(C(F)(F)F)nc2-c2ccc(Cl)nc2)n1 [Compound 1.045]
- percentage damage caused to the plant, ECHCG (five-point scale) [1]: 1 (1=0-20%)
- percentage damage caused to the plant, IPOHE (five-point scale) [2]: 5 (5=81-100%)
- percentage damage caused to the plant, AMAPA (five-point scale) [3]: 5 (5=81-100%)
- percentage damage caused to the plant, AMARE (five-point scale) [4]: 5 (5=81-100%)
- percentage damage caused to the plant, ECHCG (five-point scale) [5]: 1 (1=0-20%)
- percentage damage caused to the plant, IPOHE (five-point scale) [6]: 4 (4=61-80%)
- percentage damage caused to the plant, AMAPA (five-point scale) [7]: 5 (5=81-100%)
- percentage damage caused to the plant, AMARE (five-point scale) [8]: 5 (5=81-100%)

Structure (SMILES): CON=Cc1cn(Cc2ncn(C)n2)c(-c2cnc(Cl)c(F)c2)n1 [Compound 1.180]
- percentage damage caused to the plant, ECHCG (five-point scale) [1]: 1 (1=0-20%)
- percentage damage caused to the plant, IPOHE (five-point scale) [2]: 5 (5=81-100%)
- percentage damage caused to the plant, AMAPA (five-point scale) [3]: 4 (4=61-80%)
- percentage damage caused to the plant, AMARE (five-point scale) [4]: 5 (5=81-100%)
- percentage damage caused to the plant, ECHCG (five-point scale) [5]: 1 (1=0-20%)
- percentage damage caused to the plant, IPOHE (five-point scale) [6]: 4 (4=61-80%)
- percentage damage caused to the plant, AMAPA (five-point scale) [7]: 2 (2=21-40%)
- percentage damage caused to the plant, AMARE (five-point scale) [8]: 1 (1=0-20%)

Structure (SMILES): FC(F)(F)c1cn(Cc2nc(C3CC3)no2)c(-c2ccc(Cl)nc2)n1 [Compound 1.138]
- percentage damage caused to the plant, ECHCG (five-point scale) [1]: 1 (1=0-20%)
- percentage damage caused to the plant, IPOHE (five-point scale) [2]: 2 (2=21-40%)
- percentage damage caused to the plant, AMAPA (five-point scale) [3]: 3 (3=41-60%)
- percentage damage caused to the plant, AMARE (five-point scale) [4]: 3 (3=41-60%)
- percentage damage caused to the plant, ECHCG (five-point scale) [5]: 1 (1=0-20%)
- percentage damage caused to the plant, IPOHE (five-point scale) [6]: 2 (2=21-40%)
- percentage damage caused to the plant, AMAPA (five-point scale) [7]: 1 (1=0-20%)
- percentage damage caused to the plant, AMARE (five-point scale) [8]: 1 (1=0-20%)

Structure (SMILES): Cc1cc(Cn2cc(C(F)(F)F)nc2-c2cnc(Cl)c(F)c2)no1 [Compound 1.025]
- percentage damage caused to the plant, ECHCG (five-point scale) [1]: 4 (4=61-80%)
- percentage damage caused to the plant, IPOHE (five-point scale) [2]: 4 (4=61-80%)
- percentage damage caused to the plant, AMAPA (five-point scale) [3]: 5 (5=81-100%)
- percentage damage caused to the plant, AMARE (five-point scale) [4]: 5 (5=81-100%)
- percentage damage caused to the plant, ECHCG (five-point scale) [5]: 4 (4=61-80%)
- percentage damage caused to the plant, IPOHE (five-point scale) [6]: 2 (2=21-40%)
- percentage damage caused to the plant, AMAPA (five-point scale) [7]: 4 (4=61-80%)
- percentage damage caused to the plant, AMARE (five-point scale) [8]: 5 (5=81-100%)

Structure (SMILES): FC(F)(F)c1cn(Cc2ccsn2)c(-c2ccc(Cl)nc2)n1 [Compound 1.077]
- percentage damage caused to the plant, ECHCG (five-point scale) [1]: 1 (1=0-20%)
- percentage damage caused to the plant, IPOHE (five-point scale) [2]: 1 (1=0-20%)
- percentage damage caused to the plant, AMAPA (five-point scale) [3]: 5 (5=81-100%)
- percentage damage caused to the plant, AMARE (five-point scale) [4]: 5 (5=81-100%)
- percentage damage caused to the plant, ECHCG (five-point scale) [5]: 1 (1=0-20%)
- percentage damage caused to the plant, IPOHE (five-point scale) [6]: 1 (1=0-20%)
- percentage damage caused to the plant, AMAPA (five-point scale) [7]: 4 (4=61-80%)
- percentage damage caused to the plant, AMARE (five-point scale) [8]: 4 (4=61-80%)

Structure (SMILES): Cc1nnc(Cn2cc(C(F)(F)F)nc2-c2ccc(C(F)(F)F)cc2)s1 [Compound 1.007]
- percentage damage caused to the plant, ECHCG (five-point scale) [1]: 5 (5=81-100%)
- percentage damage caused to the plant, IPOHE (five-point scale) [2]: 5 (5=81-100%)
- percentage damage caused to the plant, AMAPA (five-point scale) [3]: 5 (5=81-100%)
- percentage damage caused to the plant, AMARE (five-point scale) [4]: 5 (5=81-100%)
- percentage damage caused to the plant, ECHCG (five-point scale) [5]: 5 (5=81-100%)
- percentage damage caused to the plant, IPOHE (five-point scale) [6]: 5 (5=81-100%)
- percentage damage caused to the plant, AMAPA (five-point scale) [7]: 5 (5=81-100%)
- percentage damage caused to the plant, AMARE (five-point scale) [8]: 5 (5=81-100%)

Structure (SMILES): Cc1cc(Cn2cc(C(F)(F)F)nc2-c2cnc(F)c(Cl)c2)ns1 [Compound 1.154]
- percentage damage caused to the plant, ECHCG (five-point scale) [1]: 5 (5=81-100%)
- percentage damage caused to the plant, IPOHE (five-point scale) [2]: 5 (5=81-100%)
- percentage damage caused to the plant, AMAPA (five-point scale) [3]: 5 (5=81-100%)
- percentage damage caused to the plant, AMARE (five-point scale) [4]: 5 (5=81-100%)
- percentage damage caused to the plant, ECHCG (five-point scale) [5]: 5 (5=81-100%)
- percentage damage caused to the plant, IPOHE (five-point scale) [6]: 4 (4=61-80%)
- percentage damage caused to the plant, AMAPA (five-point scale) [7]: 5 (5=81-100%)
- percentage damage caused to the plant, AMARE (five-point scale) [8]: 5 (5=81-100%)
